Key:
[1] = cited from earlier work
[2] = In vitro release of TLR-agonists from hydrogel; format: physicochemical; details: 6 and 10 wt. % hydrogel formulations; ammonium carbonate buffer
Description: The TLR-agonist resiquimod (synonym R848) was loaded from a stock solution (50 mM in DMSO) to 1.27 mM in the hydrogel. The TLR-agonist telratolimod (synonym MEDI9197) was loaded from a stock solution (10 mM in DMSO) to 0.5 mM in the hydrogel.
The drug loaded solution (100 μL) was transferred to a Millicell insert, which was placed in a 24-wells plate filled with PBS pH 7.4 (700 μL). At set time points the PBS was refreshed and the removed PBS was analyzed for R848 content UV absorbance at 320 nm. For MEDI9197, PBS was substituted for a volatile ammonium carbonate buffer and a HPLC-MS method was used. Release experiments were performed with n=3.

[3] = In vitro release of ipilimumab from hydrogel; format: physicochemical; details: 10 wt % UPy-PEG10k hydrogel; PBS pH 7.4
Description: The monoclonal antibody ipilimumab was loaded from a stock solution ([…] in PBS) to 3 μg/μl in the hydrogel. The drug loaded solution (50 μL) was transferred to 96-wells filter plate filled with PBS pH 7.4 (250 μL). At set time points the PBS was refreshed and the removed PBS was analyzed for antibody content with a Fortebio Octet interferometer.

O=C1[O][Pt]2([NH][C@@H]3CCCC[C@H]3[NH]2)[O]C1=O [oxaliplatin]
Cmax, ePIPAC ([1]; administered by ePIPAC): 2670 to 3280 ng/mL
AUCmax, systemic ([1]; after systemic chemotherapy): 51400 to 118000 ng·h/mL
Cmax, systemic ([1]; after systemic chemotherapy): 1610 to 1920 ng/mL

CCCCCCCCCCCCCCCCCC(=O)NCCCCOn1c(CCCC)nc2c(N)nc3ccccc3c21 [MEDI9197, telratolimod]
release rate from hydrogel [2]: released slower than MMC

ipilimumab: monoclonal antibody, checkpoint inhibitor (CTLA-4), loaded to 3 μg/μl in the hydrogel
duration of antibody release [3]: released for multiple weeks

Reference: patent US20260174692A1, “AEROSOL COMPOSITION” (UPyTher B.V., priority 2023, published 2026)
